The target in assay [1] is Sodium-dependent dopamine transporter (Rattus norvegicus, UniProt P23977). Briefly: Binding affinity against dopamine transporter by using [3H]WIN-35428 as a radioligand.
The target of assay [2] is T1, Muscarinic acetylcholine receptor M1 (Rattus norvegicus, UniProt P08482).
T1 sequence (P08482 whole entry): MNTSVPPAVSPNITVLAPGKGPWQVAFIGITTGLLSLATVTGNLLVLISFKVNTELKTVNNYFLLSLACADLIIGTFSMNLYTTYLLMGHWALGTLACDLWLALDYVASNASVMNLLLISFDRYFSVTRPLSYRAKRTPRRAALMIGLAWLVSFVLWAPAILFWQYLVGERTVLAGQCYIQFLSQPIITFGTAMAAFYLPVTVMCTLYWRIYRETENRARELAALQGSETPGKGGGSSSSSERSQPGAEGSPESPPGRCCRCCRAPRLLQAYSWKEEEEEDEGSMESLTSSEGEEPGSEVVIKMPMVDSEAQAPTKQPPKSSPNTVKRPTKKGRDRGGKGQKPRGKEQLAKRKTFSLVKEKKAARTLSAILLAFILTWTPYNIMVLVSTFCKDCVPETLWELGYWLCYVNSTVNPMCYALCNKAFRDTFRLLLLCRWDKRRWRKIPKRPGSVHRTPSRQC
Briefly: Binding affinity against Muscarinic acetylcholine receptor M1 by using [3H]pirenzepine as a radioligand.

Assay [3] addresses Norepinephrine transporter (Rattus norvegicus, UniProt Q9WTR4). Briefly: Binding affinity against norepinephrine transporter by using [3H]nisoxetine as a radioligand.
Assay [4] addresses Sodium-dependent serotonin transporter (Rattus norvegicus, UniProt P31652). The experiment in a line: Binding affinity against serotonin transporter by using [3H]-citalopram as a radioligand.

In ChEMBL document CHEMBL1149117, “Synthesis and monoamine transporter binding of 2-(diarylmethoxymethyl)-3 beta-aryltropane derivatives” (J Med Chem, 2004) one finds Ki data, which are given here for 18 molecules.

Chain of Sodium-dependent dopamine transporter (P23977 whole entry): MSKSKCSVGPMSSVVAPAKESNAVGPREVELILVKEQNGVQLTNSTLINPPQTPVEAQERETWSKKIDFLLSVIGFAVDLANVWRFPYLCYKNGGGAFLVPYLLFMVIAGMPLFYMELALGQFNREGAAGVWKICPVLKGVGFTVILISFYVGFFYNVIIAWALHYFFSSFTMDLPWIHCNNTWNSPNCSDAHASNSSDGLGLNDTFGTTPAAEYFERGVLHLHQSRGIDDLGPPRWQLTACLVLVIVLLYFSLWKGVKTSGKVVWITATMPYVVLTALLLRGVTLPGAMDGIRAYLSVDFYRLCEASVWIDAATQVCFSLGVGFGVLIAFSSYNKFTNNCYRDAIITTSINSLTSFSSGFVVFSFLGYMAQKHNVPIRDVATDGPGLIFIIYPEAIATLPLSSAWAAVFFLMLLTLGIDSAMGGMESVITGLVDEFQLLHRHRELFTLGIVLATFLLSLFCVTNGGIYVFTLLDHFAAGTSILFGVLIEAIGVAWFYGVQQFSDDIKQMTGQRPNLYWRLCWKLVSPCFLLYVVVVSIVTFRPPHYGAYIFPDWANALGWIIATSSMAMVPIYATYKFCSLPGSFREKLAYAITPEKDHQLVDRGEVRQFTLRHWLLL
Chain of Norepinephrine transporter (Q9WTR4 whole entry): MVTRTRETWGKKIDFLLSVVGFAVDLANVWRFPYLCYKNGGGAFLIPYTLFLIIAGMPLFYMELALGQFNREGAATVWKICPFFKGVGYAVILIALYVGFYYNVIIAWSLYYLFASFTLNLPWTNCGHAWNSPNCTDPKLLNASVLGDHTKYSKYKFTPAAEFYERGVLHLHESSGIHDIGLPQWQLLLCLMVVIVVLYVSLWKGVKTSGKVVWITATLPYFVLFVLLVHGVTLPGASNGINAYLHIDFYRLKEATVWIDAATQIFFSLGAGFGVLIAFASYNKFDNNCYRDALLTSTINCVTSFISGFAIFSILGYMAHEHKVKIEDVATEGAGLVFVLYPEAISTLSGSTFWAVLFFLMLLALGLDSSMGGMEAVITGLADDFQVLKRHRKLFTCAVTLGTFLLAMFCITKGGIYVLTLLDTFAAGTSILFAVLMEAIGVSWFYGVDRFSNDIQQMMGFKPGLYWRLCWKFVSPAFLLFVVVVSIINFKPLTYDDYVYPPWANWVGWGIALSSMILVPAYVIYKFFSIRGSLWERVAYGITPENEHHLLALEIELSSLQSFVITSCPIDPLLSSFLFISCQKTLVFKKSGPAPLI
Chain of Sodium-dependent serotonin transporter (P31652 whole entry): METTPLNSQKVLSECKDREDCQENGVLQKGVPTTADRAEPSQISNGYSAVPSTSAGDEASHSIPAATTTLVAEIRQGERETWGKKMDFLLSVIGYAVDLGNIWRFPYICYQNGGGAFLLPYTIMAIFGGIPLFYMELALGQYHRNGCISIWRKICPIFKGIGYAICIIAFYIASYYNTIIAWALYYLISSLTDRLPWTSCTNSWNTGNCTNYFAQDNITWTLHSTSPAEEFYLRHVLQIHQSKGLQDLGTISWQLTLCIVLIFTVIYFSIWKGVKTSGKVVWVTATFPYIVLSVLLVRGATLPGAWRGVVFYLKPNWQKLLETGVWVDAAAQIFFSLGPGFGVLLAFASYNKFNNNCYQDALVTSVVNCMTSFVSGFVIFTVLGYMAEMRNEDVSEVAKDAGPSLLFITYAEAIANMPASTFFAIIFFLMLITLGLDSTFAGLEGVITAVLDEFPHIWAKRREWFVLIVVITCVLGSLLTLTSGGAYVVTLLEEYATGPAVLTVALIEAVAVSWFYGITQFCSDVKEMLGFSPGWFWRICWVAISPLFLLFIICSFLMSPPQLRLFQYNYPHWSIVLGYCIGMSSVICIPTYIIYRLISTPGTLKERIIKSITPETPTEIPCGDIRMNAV

Broadly, the Ki is a measure of affinity in units of concentration, obtained from inhibition or displacement. Read a high Ki as lower affinity. With `CN1C2CCC1C(CCCOC(c1ccccc1)c1ccccc1)C(c1ccccc1)C2` (centres undefined), the Ki in assay [1] was 0.139 µM; in assay [2], 7.97 µM; in assay [3], 0.207 µM; in assay [4], 0.061 µM.

Take `CN1C2CCC1C(CCCOC(c1ccc(F)cc1)c1ccc(F)cc1)C(c1ccccc1)C2` (centres undefined): the Ki in assay [1] came out at 0.06 µM.

Consider `Cc1ccc(C2CC3CCC([C@@H]2COC(c2ccccc2)c2ccc(Cl)cc2)N3C)cc1` (some centres undefined), for which the inhibition constant (Ki) in assay [1] came to 0.937 µM; in assay [2], 18.2 µM; in assay [3], 22.5 µM; in assay [4], 1 µM.

In assay [1], `CN1C2CCC1[C@@H](COC(c1ccccc1)c1ccccc1)C(c1ccc(F)cc1)C2` (some centres undefined) gave an inhibition constant Ki of 0.049 µM.

In the case of `Cc1ccc(C2CC3CCC([C@H]2COC(c2ccccc2)c2ccccc2)N3C)cc1` (some centres undefined), the Ki in assay [1] was found to be 0.034 µM; in assay [2], 10.6 µM; in assay [3] it was 0.684 µM; in assay [4], 0.121 µM.

Regarding `Cc1ccc(C2CC3CCC([C@@H]2COC(c2ccc(F)cc2)c2ccc(F)cc2)N3C)cc1` (some centres undefined), the inhibition constant (Ki) in assay [1] was 0.69 µM; in assay [2], 9.7 µM; in assay [3], 16 µM; in assay [4], 0.786 µM.

Turning to `CN1C2CCC1[C@H](COC(c1ccccc1)c1ccccc1)C(c1ccc(Cl)cc1)C2` (some centres undefined), the Ki in assay [1] was found to be 0.478 µM; in assay [2], 11.5 µM; in assay [3], 4 µM; in assay [4] it was 0.408 µM.

As to `Cc1ccc(C2CC3CCC([C@@H]2COC(c2ccccc2)c2ccccc2)N3C)cc1` (some centres undefined), the Ki in assay [1] came out at 0.455 µM; in assay [2], 12.6 µM; in assay [3], 2.61 µM; in assay [4], 0.53 µM.

As to `CN1C2CCC1[C@H](COC(c1ccc(F)cc1)c1ccc(F)cc1)C(c1ccc(Cl)cc1)C2` (some centres undefined), the Ki in assay [1] was 0.25 µM; in assay [2] it was 9.93 µM; in assay [3] it was 52.3 µM; in assay [4], 0.724 µM.

For the molecule `Cc1ccc(C2CC3CCC([C@H]2COC(c2ccc(F)cc2)c2ccc(F)cc2)N3C)cc1` (some centres undefined), the Ki in assay [1] is 0.062 µM; in assay [2], 15.5 µM; in assay [3] it was 1.83 µM; in assay [4], 0.233 µM.

Consider `CN1C2CCC1[C@@H](COC(c1ccccc1)c1ccccc1)C(c1ccc(Cl)cc1)C2` (some centres undefined), for which the inhibition constant (Ki) amounted to 0.052 µM in assay [1], 11 µM in assay [2], 1.19 µM in assay [3] and 0.147 µM in assay [4].

For `CN1C2CCC1[C@H](COC(c1ccccc1)c1ccc(Cl)cc1)C(c1ccc(Cl)cc1)C2` (some centres undefined), the Ki in assay [1] stood at 0.553 µM; in assay [2], 9.6 µM; in assay [3], 5.6 µM; in assay [4] it was 1.29 µM.

Turning to `CN1C2CCC1C(CCCOC(c1ccccc1)c1ccc(Cl)cc1)C(c1ccccc1)C2` (centres undefined), the Ki in assay [1] came to 0.261 µM; in assay [2], 24.6 µM; in assay [4] it was 0.045 µM.

As for `CN1C2CCC1[C@@H](COC(c1ccccc1)c1ccc(Cl)cc1)C(c1ccc(Cl)cc1)C2` (some centres undefined), the Ki in assay [1] was determined as 0.076 µM; in assay [2], 39.9 µM; in assay [3] it was 2.06 µM; in assay [4], 0.462 µM.

For the molecule `Cc1ccc(C2CC3CCC([C@H]2COC(c2ccccc2)c2ccc(Cl)cc2)N3C)cc1` (some centres undefined), the Ki is 0.08 µM in assay [1], 31.6 µM in assay [2], 4.4 µM in assay [3] and 0.443 µM in assay [4].

In assay [1], `CN1C2CCC1[C@@H](COC(c1ccc(F)cc1)c1ccc(F)cc1)C(c1ccc(F)cc1)C2` (some centres undefined) gave a Ki of 0.063 µM.

In assay [1], `CN1C2CCC1[C@@H](COC(c1ccccc1)c1ccc(Cl)cc1)C(c1ccc(F)cc1)C2` (some centres undefined) showed a Ki of 0.112 µM.

Consider `CN1C2CCC1[C@@H](COC(c1ccc(F)cc1)c1ccc(F)cc1)C(c1ccc(Cl)cc1)C2` (some centres undefined), for which the Ki stood at 0.099 µM in assay [1], 16.3 µM in assay [2], 2.89 µM in assay [3] and 0.245 µM in assay [4].
